Experimental data as given in PMC6934184, “Selective DNA-PKcs inhibition extends the therapeutic index of localized radiotherapy and chemotherapy” (The Journal of Clinical Investigation, 2019).

Target: T1, CDK1/cyclin A2 (Homo sapiens, UniProt P06493)
T1 construct: purchased Thermo Fisher Scientific (Life Technologies) SelectScreen
Assay: SelectScreen LanthaScreen
Assay type: binding
Conditions: 1 µM
Method in brief: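 Percent values come from Thermo SelectScreen profiling of NU5455, combining activity and binding assays. CSF1R was run in Z'LYTE format at Km app ATP, and CAMK1 in Adapta format with ATP listed at 10.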

T1 sequence (P06493 whole entry): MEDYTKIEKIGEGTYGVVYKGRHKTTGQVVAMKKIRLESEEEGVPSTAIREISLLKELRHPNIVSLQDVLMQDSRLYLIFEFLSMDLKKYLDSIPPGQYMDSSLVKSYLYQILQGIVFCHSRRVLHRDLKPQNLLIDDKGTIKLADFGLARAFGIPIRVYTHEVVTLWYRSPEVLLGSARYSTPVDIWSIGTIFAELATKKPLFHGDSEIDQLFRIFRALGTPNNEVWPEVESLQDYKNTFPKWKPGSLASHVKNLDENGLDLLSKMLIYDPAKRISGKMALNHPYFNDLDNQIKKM
T1 sequence (P20248 whole entry partner): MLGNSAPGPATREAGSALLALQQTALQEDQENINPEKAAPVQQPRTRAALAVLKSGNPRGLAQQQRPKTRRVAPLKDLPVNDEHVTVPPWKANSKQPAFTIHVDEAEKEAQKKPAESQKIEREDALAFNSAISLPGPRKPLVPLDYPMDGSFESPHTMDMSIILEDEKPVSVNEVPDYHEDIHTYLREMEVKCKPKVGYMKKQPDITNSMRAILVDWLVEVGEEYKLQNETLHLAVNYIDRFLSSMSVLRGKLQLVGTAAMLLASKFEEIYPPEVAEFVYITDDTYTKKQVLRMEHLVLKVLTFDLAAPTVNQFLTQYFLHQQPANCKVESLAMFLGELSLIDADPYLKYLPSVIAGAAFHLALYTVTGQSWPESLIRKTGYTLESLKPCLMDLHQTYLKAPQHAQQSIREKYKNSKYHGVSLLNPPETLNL

CN(C(=O)CN1CCOCC1)c1ccc2sc3c(-c4cccc5c(=O)cc(N6CC7CCC(C6)O7)oc45)cccc3c2c1 [NU5455]
% displacement: 3.3%
